# Assay: gradient 5% acetonitrile 3 min, to 50% in 2 min, to 85% in 15 min, held 3 min, 100 µL/min
# Details: column: Zorbax Extend-C18 2.1 x 50 mm; eluents: water / acetonitrile, 0.1% formic acid
# Outline: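 Retention times come from adduct peaks that were picked computationally and then checked by hand. The standards, pure and pooled in mixtures of ~100 molecules, were run on a Zorbax Extend-C18 column (2.1 × 50 mm, 1.8 μm) at 100 μL/min with water and acetonitrile, each with 0.1% formic acid. Detection was by quadrupole time-of-flight mass spectrometry in positive and negative ionization mode, with a dead volume of 40 μL and a dwell volume of 900 μL.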
row,RP-LC retention time,SMILES
1,577 s,O=C(NCCCN1CCC(N2CCCCC2)CC1)c1cc(=O)n2c(nc3ccccc32)s1
2,698 s,O=C(Nc1ccc(-n2cnc(C(=O)N3CCCCCC3)c2)nc1)C1CC1
3,575 s,CCC(=O)N1CCc2c(sc3ncnc(N)c23)C1
4,696 s,CN(CCCNC(=O)C1CCCN(S(=O)(=O)c2ccc3c(ccn3C)c2)C1)Cc1ccccc1 (stereo not given)
5,852 s,Cc1nnc2ccc(-c3noc(Cc4ccccc4Cl)n3)cn12
6,976 s,COc1ccccc1/C=C/c1nc(-c2cccc(-c3ccn[nH]3)c2)no1
7,888 s,CCc1nc(OCC(=O)Nc2ccc(F)c(Cl)c2)c2ccccc2n1
8,680 s,CCOC(=O)c1cccc(NC(=O)CSc2ccc(N3CCCC(C(=O)NC4CC4)C3)nn2)c1 (stereo not given)
9,595 s,N#CCn1nc2n(c1=O)CCN(C(=O)c1cc(C3CC3)[nH]n1)CC2
10,673 s,Cc1ccn2cc(-c3ccc(NC(=O)/C=C/c4ccccc4)cc3)nc2n1
11,991 s,CCc1ccc(-n2cc(C(=O)OCc3cc(=O)n4ccccc4n3)c3ccccc3c2=O)cc1
12,630 s,CC1CN=C2C=C(N3CCN(C(=O)Nc4ccc(Cl)cc4F)CC3)N=CN21 (stereo not given)
13,559 s,COCC1(O)CCOC2(CCN(Cc3ccc(C)cc3C)CC2)C1 (stereo not given)
14,945 s,Cc1cccc(NC(=O)CN2C(=O)C(C(=O)N3CCCC3)Sc3ccccc32)c1C (stereo not given)
15,676 s,Cn1c(N2CCCC(C(=O)NCc3cccc(F)c3)C2)cc(=O)n(C)c1=O (stereo not given)
16,632 s,CCN(CC)CCCNC(=O)c1noc2c1CCCCC2
17,624 s,CC(=O)N1CCCc2cc(S(=O)(=O)N3CCC(C(=O)N4CCN(C)CC4)CC3)ccc21
18,1120 s,O=C(NCc1cccs1)c1c(O)c2cccnc2n(-c2cccc(F)c2)c1=O
19,776 s,Cc1nc2ccn(Cc3ccco3)c(=O)c2cc1C(=O)NCCC(C)C
20,778 s,N#Cc1ccc(C(=O)NC(Cc2ccccc2)c2nnc(N3CCCC3)o2)cc1 (stereo not given)
21,866 s,CCn1c(=O)c(C)nc2cc(-c3noc(C(C)NC(=O)c4ccco4)n3)ccc21 (stereo not given)
22,620 s,O=C(CCC(=O)N1CC2CCCN2c2ccccc21)NCCN1CCOCC1 (stereo not given)
23,662 s,CCCNS(=O)(=O)c1cc(-c2[nH]ncc2C(=O)N2CCOCC2)oc1C

row,RP-LC retention time,SMILES
1,806 s,O=S(=O)(CCOc1ccccc1)NCc1ccc2c(c1)OCO2
2,889 s,Cc1ccc(C)c(N2C(=O)CN(S(C)(=O)=O)CC2(C)C(=O)NCc2ccc(Cl)cc2)c1 (stereo not given)
3,746 s,COc1ccc(C2CCCN2C(=O)c2c(C)noc2C)cc1 (stereo not given)
4,889 s,NS(=O)(=O)c1cccnc1Nc1cccc(Br)c1
5,1050 s,O=C(Nc1ccc(Br)cc1F)N1CCc2nc(-c3ccc(F)cc3)ncc2C1
6,613 s,CCOC(=O)Cn1c(C2CCCN2C(=O)CC)nc2ccccc21 (stereo not given)
7,662 s,COc1cc(NC(=O)N2CCC(n3c(CC(C)C)nc4cccnc43)CC2)cc(OC)c1OC
8,657 s,CN(C)CCN1CC(C(=O)N2CCC(c3c[nH]c4ccccc34)(c3c[nH]c4ccccc34)CC2)CC1=O (stereo not given)
9,599 s,CC1=C(C(=O)Nc2ccccc2C(=O)NCCN2CCN(C)CC2)SCCO1
10,625 s,Cc1ccc(NC(=O)CN2C(=O)COc3ccc(C(=O)N4CCCC4)cc32)nc1
11,917 s,Cc1ccc(S(=O)(=O)N2CCC(CC(=O)NC(C)c3ccccc3)CC2)cc1 (stereo not given)
12,798 s,COc1ccc(NC(=O)NC2CCN(c3ccc(F)c(C)c3)C2=O)cc1 (stereo not given)
13,1160 s,CCN(CCNC(=O)c1ccc2[nH]c3c(c2c1)CN(C(C)=O)CC3)c1ccccc1
14,824 s,Cn1nccc1C(=O)N1CC(c2nc(CCOCC3CCCC3)no2)C1
15,1060 s,O=S(=O)(c1ccc(-c2cc(C(F)(F)F)on2)o1)N1CCN(c2ncccn2)CC1
16,1000 s,CC1Cc2ccccc2N1C(=O)C12CCC(C)(C(=O)O1)C2(C)C (stereo not given)
17,571 s,Cc1ccc2c(C(=O)N3CCN(Cc4ccccc4)CC3)cc(NC(=O)C(C)C)cc2n1
18,827 s,CCOC(=O)c1nc(NC2CCCCCC2)c2ccccc2n1
19,619 s,CN1CCN(C(=O)C2CCN(S(=O)(=O)c3cc(C(=O)N4CCCCCC4)cs3)CC2)CC1
20,837 s,CC(C)C(=O)Nc1ccc(OCc2cc(C(=O)NC3CCCC3)no2)cc1
21,692 s,Cc1ccc(-c2cn3cc(C(=O)NC(C)(C)C)ccc3n2)cc1
22,1270 s,Cc1ccc(C)c(S(=O)(=O)N2CCC(c3noc(-c4ccccc4C)n3)CC2)c1
23,844 s,COc1ccc(NC(=O)c2cnc3c(c2)c(=O)n(C)c(=O)n3-c2ccccc2)c(OC)c1

row,RP-LC retention time,SMILES
1,577 s,COc1ccc(NC(=O)N2CCN(c3cnn4c(C)nnc4c3)CC2)cc1OC
2,694 s,Cc1ccc(NC(=O)N2CCCC2C(=O)NC(C)C)cc1 (stereo not given)
3,614 s,COc1ccc(CNC(=O)c2cn3cc(C)ccc3n2)cc1OC
4,715 s,CCn1ccc2cc(S(=O)(=O)N3CCCC(C(=O)NCCCN(C)Cc4ccccc4)C3)ccc21 (stereo not given)
5,1030 s,Cc1ccccc1Nc1c(-c2ccc(Cl)cc2Cl)nc2cnccn12
6,745 s,Cc1nn(C)c2c(=O)n(CC(=O)NCc3ccc(Br)cc3)ccc12
7,1100 s,Cc1ccc(-c2csc(NC(=O)C3CCC3)n2)cc1C
8,876 s,CC(C)C(=O)NCc1csc(C2CCN(C(=O)C3CCC3)CC2)n1
9,611 s,COc1ccc(CCN2CC(C(=O)O)CC2=O)cc1OC (stereo not given)
10,701 s,Cn1c(N)c(S(=O)(=O)N2CCN(c3ccccc3F)CC2)c(=O)n(C)c1=O
11,853 s,CCn1cc(S(=O)(=O)NCc2ccccc2C)c2cccnc21
12,883 s,Cc1ccc(NC(=O)C2CCN(S(=O)(=O)c3cn(C(C)C)cn3)CC2)cc1Cl
13,756 s,Cc1c(Cl)cccc1NC(=O)CC1COc2ccccc2NC1=O (stereo not given)
14,836 s,CCc1noc(NC(C)=O)c1-c1ccc(OC)c(S(=O)(=O)Nc2ccc(C)c(F)c2)c1
15,748 s,COc1ccc(-c2nc3ccc(Cl)cn3c2Nc2ccc3c(c2)OCO3)cc1
16,787 s,CCc1noc(NC(C)=O)c1-c1ccc(C)c(S(=O)(=O)NC(C)CC)c1 (stereo not given)
17,658 s,Cc1cccc(NC(=O)Cn2c(C)nc(C)c(C)c2=O)c1
18,740 s,Cc1nn(-c2ccccc2)c(C)c1S(=O)(=O)N1CCC(C(=O)N2CCOCC2)CC1
19,722 s,CCn1cc(-c2ccc(F)cc2)cc1C(=O)NCc1ccccn1
20,777 s,CC1=C(c2ccccc2)S(=O)(=O)N=C1N1CCCN(C(=O)c2ccc(C#N)cc2)CC1
21,637 s,COC1CCC12CCN(Cc1cccc(F)c1)CC2 (stereo not given)
22,885 s,COC(=O)c1cnn2c(C)c(Cc3ccc(C)cc3)c(C)nc12
23,1020 s,COc1cccc(-n2c(N3CCCC(C(=O)NCCC4=CCCCC4)C3)nc3ccsc3c2=O)c1 (stereo not given)

row,RP-LC retention time,SMILES
1,731 s,Cc1cccc(C(=O)N2C[C@H](c3nc(-c4ccccc4)no3)[C@@H](C)C2)c1
2,693 s,CCCNC(=O)C1CCCN(c2ccc(SCC(=O)Nc3cccc(SC)c3)nn2)C1 (stereo not given)
3,703 s,O=C(Nc1ccccc1)C1CCCN(c2cnc3nccnc3c2)C1 (stereo not given)
4,828 s,CCCN(C)C(=O)C1c2ccccc2CC(=O)N1Cc1ccccc1 (stereo not given)
5,1120 s,O=C(c1cc(F)cc(F)c1)N1CCCC(c2ccnc(-c3cccc(F)c3)n2)C1 (stereo not given)
6,654 s,Cc1csc(-c2cc(S(=O)(=O)NCCN3CCOCC3)cn2CC(=O)N2CCCCC2)n1
7,647 s,COC(=O)c1cnc2nc(C)ccc2c1Nc1ccc(OC)cc1
8,906 s,Cc1cccc(-n2c(=O)c3c(cc(C)n3C)n(CC(=O)Nc3c(C)cccc3C)c2=O)c1
9,955 s,COc1ccc(NC(=O)CSc2nccnc2Oc2ccc(C)cc2)cc1OC
10,673 s,CC(=O)N(C1CC1)C1CCOC2(CCN(C(=O)c3ccsc3)CC2)C1 (stereo not given)
11,948 s,O=C(Nc1ccccc1C(F)(F)F)N1CCc2nc(-c3ccccc3)ncc2C1
12,708 s,CC(C)CNC(=O)c1ccc(-c2nnc3ccc(NC(=O)C4CC4)cn23)cc1
13,760 s,O=C1CCc2cc(NC(=O)c3ccc(-c4ccccc4)cc3)ccc2N1
14,785 s,CN(C)c1ccc(/C=C/c2ccc3ccccc3n2)cc1
15,613 s,CCCN(Cc1ccc(OC)c(OC)c1)Cc1cc(=O)n2ccc(C)cc2n1
16,689 s,CC(C)Cn1c(=O)c(N2CCN(C(=O)c3ccc(Cl)cc3)CC2)nc2ccncc21
17,840 s,CCc1noc(-c2ccnc(-n3ncc(C(=O)N4CCCC4)c3C)c2)n1
18,908 s,CCNC(=O)N1CCCC(c2cccc(C(=O)NCc3ccc(CC)cc3)c2)C1 (stereo not given)
19,935 s,CCCN1C(=O)C(NC(=O)c2ccccc2OC)(C(F)(F)F)C(C(=O)OC)=C1C (stereo not given)
20,892 s,CCOc1ccc(S(=O)(=O)N2CCCN(c3ccc(=O)n(-c4ccccc4)n3)CC2)cc1

row,SMILES,RP-LC retention time
1,O=C(NCC1CCOCC1)c1cnc(Nc2ccc(Cl)cc2Cl)nc1C(F)(F)F,997 s

# From the METLIN SMRT retention time set (Domingo-Almenara et al. 2019)
